Reference: patent US20160220569A1, “CDK4/6 Inhibitor Dosage Formulations For The Protection Of Hematopoietic Stem And Progenitor Cells During Chemotherapy” (G1 Therapeutics, Inc., priority 2015, published 2016)
Read-outs that look alike come from different tables or passages of the source.

Assay: 14-day oral gavage toxicokinetic study in rats
Format: in vivo
Settings: rat, plasma, po; for concentration at 0.5 h / concentration at 1 h / concentration at 2 h / concentration at 4 h / concentration at 8 h / concentration at 12 h / concentration at 24 h / concentration at […]: rats; for concentration at 1 h: Day 14, 1 h; for concentration at 24 h: Day 14, 24 h; for half-life: read-out: t½ (converted)
Procedure: Plasma was obtained from blood samples collected from rats in a composite sampling scheme, with 3 samples collected per sex, per dose, at each target collection time, as illustrated in Table 21 to Table 25. Samples were collected from the vehicle control group on Day 1 and Day 14 at 3 hour after administration. […] Blood samples were collected in tubes containing K3EDTA as an anticoagulant and placed on ice until processed to plasma via centrifugation. Samples were stored frozen at −80° C. until shipment to the bioanalytical laboratory for analysis.
The following parameters were determined:
Cmax: Maximum observed plasma concentration (ng/mL).
A value of 0 ng/mL was assigned to all values below the lower limit of quantitation (BLQ, <10.0 ng/mL).
AUC(0-inf): Area under the plasma concentration vs. time curve extrapolated from 0 to infinity (ng*h/mL), calculated as AUC(0-t)+AUC(t-inf) where AUC(t-inf) is calculated as last measurable concentration (CLast) divided by ke, where ke is the elimination rate constant determined by linear regression of the last three analytically measured points on the log plasma concentration vs. time curve. The selection criteria of the data points for inclusion in the calculation of ke required that at least three data points representing the terminal phase (after Tmax) were regressed and that R2≧0.850 when rounded.
CL: Clearance (L/h/kg), calculated as the dose divided by AUC(0-t).
Vd: Volume of distribution (L/kg), calculated as dose divided by the product of ke and AUC(0-inf).
Vdss: Steady state volume of distribution (L/kg), calculated as clearance […] mean residence time, where mean residence time is calculated as the area under the first moment curve divided by AUC(0-t).
t½: Elimination half-life (h), calculated as ln(2)/ke, where ke is the elimination rate constant determined by linear regression. Half-life was defined as not determined if regression criteria (specified in AUC(0-inf) above) were not met.
Cmax/Dose: Normalized Cmax, calculated as Cmax divided by total dose.
AUC/Dose: Normalized AUC, calculated as AUC(0-t) divided by total dose.
ii. Statistical Analysis Mean and standard deviation (SD) were calculated in Watson. Values of BLQ were assigned a value of 0 ng/mL for mean calculations. Concentration values and derived TK parameters were reported to three significant figures.

[1] = both sexes, 15 mg/kg, Mean Compound 1 Plasma Concentration, oral 15 mg/kg, Overall
[2] = both sexes, 15 mg/kg, oral 15 mg/kg, Study Day 1, Overall
[3] = both sexes, 15 mg/kg, oral 15 mg/kg, Study Day 14, Overall
[4] = both sexes, 30 mg/kg, Mean Compound 1 Plasma Concentration, oral 30 mg/kg, Overall
[5] = both sexes, 30 mg/kg, oral 30 mg/kg, Study Day 1, Overall
[6] = both sexes, 30 mg/kg, oral 30 mg/kg, Study Day 14, Overall
[7] = female, 2 mg/kg, Compound 1 Plasma Concentration, Female, daily oral 2 mg/kg (Group 7), individual animals

Work on `CN1CCN(c2ccc(Nc3ncc4cc5n(c4n3)C3(CCCCC3)CNC5=O)nc2)CC1` [Compound 1, 2′-((5-(4-methylpiperazin-1-yl)pyridin-2-yl)amino)-7′,8′-dihydro-6′H-spiro[cyclohexane-1,9′-pyrazino[1′,2′:1,5]pyrrolo[2,3-d]pyrimidin]-6′-one] yielded a concentration at 0.5 h (both sexes, 15 mg/kg, Mean Compound 1 Plasma Concentration, oral 15 mg/kg, Day 14, 0.5 h, Overall) of 955 ng/mL, a concentration at 1 h [1] of 1150 ng/mL and a concentration at 2 h (both sexes, 15 mg/kg, Mean Compound 1 Plasma Concentration, oral 15 mg/kg, Day 14, 2 h, Overall) of 1410 ng/mL. It also gave a concentration at 4 h (both sexes, 15 mg/kg, Mean Compound 1 Plasma Concentration, oral 15 mg/kg, Day 14, 4 h, Overall) of 1330 ng/mL, a concentration at 8 h (both sexes, 15 mg/kg, Mean Compound 1 Plasma Concentration, oral 15 mg/kg, Day 14, 8 h, Overall) of 1070 ng/mL and a concentration at 12 h (both sexes, 15 mg/kg, Mean Compound 1 Plasma Concentration, oral 15 mg/kg, Day 14, 12 h, Overall) of 715 ng/mL. The concentration at 24 h [1] was 95.3 ng/mL, the AUC(0-inf) [2] was 19900 ng·h/mL and the AUC(0-t) [2] was 19400 ng·h/mL. It also gave a Cmax [2] of 1490 ng/mL, a Tmax [2] of 2 h and a half-life [2] of 4.05 h. It also gave an AUC(0-inf) [3] of 18700 ng·h/mL, an AUC(0-t) [3] of 18100 ng·h/mL and a Cmax [3] of 1410 ng/mL. It also gave a Tmax [3] of 2 h, a half-life [3] of 4.47 h and a concentration at 0.5 h (both sexes, 30 mg/kg, Mean Compound 1 Plasma Concentration, oral 30 mg/kg, Day 1, 0.5 h, Overall) of 1790 ng/mL. The concentration at 2 h (both sexes, 30 mg/kg, Mean Compound 1 Plasma Concentration, oral 30 mg/kg, Day 1, 2 h, Overall) was 2360 ng/mL, the concentration at 4 h (both sexes, 30 mg/kg, Mean Compound 1 Plasma Concentration, oral 30 mg/kg, Day 1, 4 h, Overall) was 2380 ng/mL and the concentration at 8 h (both sexes, 30 mg/kg, Mean Compound 1 Plasma Concentration, oral 30 mg/kg, Day 1, 8 h, Overall) was 2160 ng/mL. It also gave a concentration at 12 h (both sexes, 30 mg/kg, Mean Compound 1 Plasma Concentration, oral 30 mg/kg, Day 1, 12 h, Overall) of 1800 ng/mL, a concentration at 0.5 h (both sexes, 30 mg/kg, Mean Compound 1 Plasma Concentration, oral 30 mg/kg, Day 14, 0.5 h, Overall) of 1270 ng/mL and a concentration at 1 h [4] of 1880 ng/mL. It also gave a concentration at 2 h (both sexes, 30 mg/kg, Mean Compound 1 Plasma Concentration, oral 30 mg/kg, Day 14, 2 h, Overall) of 1800 ng/mL, a concentration at 4 h (both sexes, 30 mg/kg, Mean Compound 1 Plasma Concentration, oral 30 mg/kg, Day 14, 4 h, Overall) of 2180 ng/mL and a concentration at 8 h (both sexes, 30 mg/kg, Mean Compound 1 Plasma Concentration, oral 30 mg/kg, Day 14, 8 h, Overall) of 1920 ng/mL. For the same compound, the concentration at 12 h (both sexes, 30 mg/kg, Mean Compound 1 Plasma Concentration, oral 30 mg/kg, Day 14, 12 h, Overall) was 1800 ng/mL, the concentration at 24 h [4] was 263 ng/mL and the AUC(0-inf) [5] was 39400 ng·h/mL. For the same compound, the AUC(0-t) [5] was 37500 ng·h/mL, the Cmax [5] was 2380 ng/mL and the Tmax [5] was 4 h. The half-life [5] was 4.98 h, the AUC(0-inf) [6] was 37000 ng·h/mL and the AUC(0-t) [6] was 35000 ng·h/mL. For the same compound, the Cmax [6] was 2180 ng/mL, the Tmax [6] was 4 h and the half-life [6] was 5.23 h. It also gave a concentration at […] (both, 2 mg/kg, Mean Compound 1 Plasma Concentration, oral 2 mg/kg, Day 14, […], Overall) of 4 ng/mL, a concentration at […] (both, 5 mg/kg, Mean Compound 1 Plasma Concentration, oral 5 mg/kg, Day 1, […], Overall) of 20.8 ng/mL and a concentration at […] (both, 5 mg/kg, Mean Compound 1 Plasma Concentration, oral 5 mg/kg, Day 14, […], Overall) of 49 ng/mL. For the same compound, the concentration at […] (both, 15 mg/kg, Mean Compound 1 Plasma Concentration, oral 15 mg/kg, Day 1, […], Overall) was 72.5 ng/mL, the concentration at […] (both, 15 mg/kg, Mean Compound 1 Plasma Concentration, oral 15 mg/kg, Day 14, […], Overall) was 119 ng/mL and the concentration at […] (both, 30 mg/kg, Mean Compound 1 Plasma Concentration, oral 30 mg/kg, Day 1, […], Overall) was 150 ng/mL. The concentration at […] (both, 30 mg/kg, Mean Compound 1 Plasma Concentration, oral 30 mg/kg, Day 14, […], Overall) was 372 ng/mL, the concentration at 0.5 h (female, 2 mg/kg, Compound 1 Plasma Concentration, Female, Day 1, 0.5 h, daily oral 2 mg/kg (Group 7), individual animals) was 139 ng/mL and the concentration at 2 h (female, 2 mg/kg, Compound 1 Plasma Concentration, Female, Day 1, 2 h, daily oral 2 mg/kg (Group 7), individual animals) was 216 ng/mL. For the same compound, the concentration at 12 h (female, 2 mg/kg, Compound 1 Plasma Concentration, Female, Day 1, 12 h, daily oral 2 mg/kg (Group 7), individual animals) was 91.8 ng/mL, the concentration at 0.5 h (female, 2 mg/kg, Compound 1 Plasma Concentration, Female, Day 14, 0.5 h, daily oral 2 mg/kg (Group 7), individual animals) was 192 ng/mL and the concentration at 1 h [7] was 108 ng/mL. For the same compound, the concentration at 2 h (female, 2 mg/kg, Compound 1 Plasma Concentration, Female, Day 14, 2 h, daily oral 2 mg/kg (Group 7), individual animals) was 224 ng/mL, the concentration at 4 h (female, 2 mg/kg, Compound 1 Plasma Concentration, Female, Day 14, 4 h, daily oral 2 mg/kg (Group 7), individual animals) was 129 ng/mL and the concentration at 24 h [7] was 21.6 ng/mL. For the same compound, the concentration at […] (female, 2 mg/kg, Compound 1 Plasma Concentration, Female, Day 14, […], daily oral 2 mg/kg (Group 7), individual animals) was 20 ng/mL.
